Reference: publication PMC11995724, “Antibiotic target discovery by integrated phenotypic and activity-based profiling of electrophilic fragments” (Cell chemical biology, 2025)
Where a name gives a salt, the structure may show the parent alone.

experiment: in vitro; conditions: human, hek293t cells

In order of rising viability at 48 h, 25 µM:
1. Cc1ccc(Sc2ccc(NC(=O)CCl)cc2)c(C)c1 [4-I03, 2-chloro-N-{4-[(2,4-dimethylphenyl)sulfanyl]phenyl}acetamide]  0.0415%
2. Cc1ccc(-n2c(C)cc(C(=O)CCl)c2C)cc1F [10-C06, 2-chloro-1-[1-(3-fluoro-4-methylphenyl)-2,5-dimethyl-1H-pyrrol-3-yl]ethan-1-one]  0.213%
3. O=C(CCl)c1ccc(Oc2ccccc2)cc1 [10-G20, 2-chloro-1-(4-phenoxyphenyl)ethan-1-one]  0.299%
4. CN(Cc1ccc(N(C)C)cc1)C(=O)CCl [5-F06, 2-chloro-N-{[4-(dimethylamino)phenyl]methyl}-N-methylacetamide hydrochloride]  0.499%
5. CN(C)S(=O)(=O)c1cccc(NC(=O)CCl)c1 [4-J08, 2-chloro-N-[3-(dimethylsulfamoyl)phenyl]acetamide]  0.946%
6. O=C(CCl)NCCc1cccc2c1Oc1ccccc1O2 [7-J18, 2-chloro-N-[2-(oxanthren-1-yl)ethyl]acetamide]  0.958%
7. O=C(CCl)NCC1(c2ccccc2)CCC1 [4-O19, 2-chloro-N-[(1-phenylcyclobutyl)methyl]acetamide]  0.976%
8. O=C(CCl)N1CCN(C(=O)c2cn(C3CC3)nn2)CC1 [5-D03, 2-chloro-1-[4-(1-cyclopropyl-1H-1,2,3-triazole-4-carbonyl)piperazin-1-yl]ethan-1-one]  2.35%
9. Cc1cc(CN(C(=O)CCl)c2cn(C)nn2)ccc1Cl [5-I12, 2-chloro-N-[(4-chloro-3-methylphenyl)methyl]-N-(1-methyl-1H-1,2,3-triazol-4-yl)acetamide]  13.7%
10. CC(C)n1ccnc1C(=O)CCl [10-H10, 2-chloro-1-[1-(propan-2-yl)-1H-imidazol-2-yl]ethan-1-one]  20.4%
11. N#Cc1c(NC(=O)CCl)oc(-c2cccs2)c1-c1cccs1 [6-I09, 2-chloro-N-[3-cyano-4,5-bis(thiophen-2-yl)furan-2-yl]acetamide]  28.5%
12. C=CC(=O)NCCNS(=O)(=O)c1cc(C)sc1C [3-C21, N-[2-(2,5-dimethylthiophene-3-sulfonamido)ethyl]prop-2-enamide]  34.6%
13. CC(C)NC(=O)C(C#N)=Cc1ccc(C(F)(F)F)cc1 [8-L13, 2-cyano-N-(propan-2-yl)-3-[4-(trifluoromethyl)phenyl]prop-2-enamide]  37.8%
14. N#CC(=Cc1csnn1)C(=O)Nc1ccc(Oc2ccccc2)cc1 [8-M12, 2-cyano-N-(4-phenoxyphenyl)-3-(1,2,3-thiadiazol-4-yl)prop-2-enamide]  43%
15. C=CC(=O)NCc1ccc(C(=O)N2CCC(c3nc(C)no3)C2)cc1 (stereo not drawn) [2-P08, N-({4-[3-(3-methyl-1,2,4-oxadiazol-5-yl)pyrrolidine-1-carbonyl]phenyl}methyl)prop-2-enamide]  52.5%
16. C=CC(=O)N1CCC(C(=O)N[C@H]2CCO[C@H](c3ccccn3)C2)CC1 (racemic) [2-G15, rac-1-(prop-2-enoyl)-N-[(2R,4R)-2-(pyridin-2-yl)oxan-4-yl]piperidine-4-carboxamide]  66.9%
17. C=CC(=O)Nc1ccc(C(N)=O)nc1OC [1-E18, 6-methoxy-5-(prop-2-enamido)pyridine-2-carboxamide]  69.6%
18. C=CC(=O)NCCc1nnc(-c2ccccc2)o1 [3-J09, N-[2-(5-phenyl-1,3,4-oxadiazol-2-yl)ethyl]prop-2-enamide]  70.8%
19. C=CC(=O)NCc1ccnc(N2CCN(c3ccc(F)cc3)CC2)c1 [1-M11, N-({2-[4-(4-fluorophenyl)piperazin-1-yl]pyridin-4-yl}methyl)prop-2-enamide]  71.6%
20. Cc1csc(-n2c(C)cc(C(=O)CCl)c2C)n1 [10-G05, 2-chloro-1-[2,5-dimethyl-1-(4-methyl-1,3-thiazol-2-yl)-1H-pyrrol-3-yl]ethan-1-one]  72.5%
21. Cc1ccc(C=C(C#N)C(=O)Nc2ccc(N3CCOCC3)cc2)s1 [8-A06, 2-cyano-3-(5-methylthiophen-2-yl)-N-[4-(morpholin-4-yl)phenyl]prop-2-enamide]  76.2%
22. CC(Cl)C(=O)NCc1ccc(F)cc1 (stereo not drawn) [5-A19, 2-chloro-N-[(4-fluorophenyl)methyl]propanamide]  76.2%
23. O=C1CCCc2cc(C(=O)CCl)ccc2N1 [10-M20, 7-(2-chloroacetyl)-2,3,4,5-tetrahydro-1H-1-benzazepin-2-one]  80.5%
24. CC(Cl)C(=O)N1CCCC(n2ccc(C(F)(F)F)n2)C1 (stereo not drawn) [7-A08, 2-chloro-1-{3-[3-(trifluoromethyl)-1H-pyrazol-1-yl]piperidin-1-yl}propan-1-one]  80.7%
25. CC(Cl)C(=O)N1CCn2c(nn(CC(=O)N(C)C)c2=O)C1 (stereo not drawn) [7-K17, 2-[7-(2-chloropropanoyl)-3-oxo-2H,3H,5H,6H,7H,8H-[1,2,4]triazolo[4,3-a]pyrazin-2-yl]-N,N-dimethylacetamide]  83.1%
26. C=CC(=O)NCC1(C)CCC(C)(C)CC1 [1-F22, N-[(1,4,4-trimethylcyclohexyl)methyl]prop-2-enamide]  83.2%
27. CC(Cl)C(=O)N1CCN(c2oc(-c3ccco3)nc2C#N)CC1 (stereo not drawn) [7-D13, 5-[4-(2-chloropropanoyl)piperazin-1-yl]-2-(furan-2-yl)-1,3-oxazole-4-carbonitrile]  85%
28. Cc1cc(CO[C@H]2CC[C@H](NC(=O)CCl)CC2)on1 [6-K19, 2-chloro-N-[(1r,4r)-4-[(3-methyl-1,2-oxazol-5-yl)methoxy]cyclohexyl]acetamide]  88.1%
29. C=CC(=O)Nc1cc(C(C)(C)C)nn1-c1ncccn1 [1-E04, N-[3-tert-butyl-1-(pyrimidin-2-yl)-1H-pyrazol-5-yl]prop-2-enamide]  88.8%
30. CC(C)Cn1c(N)c(C(=O)CCl)c(=O)[nH]c1=O [10-F08, 6-amino-5-(2-chloroacetyl)-1-(2-methylpropyl)-1,2,3,4-tetrahydropyrimidine-2,4-dione]  91.2%
31. C=CC(=O)NCc1ccc(-c2noc(C)n2)cc1 [3-P22, N-{[4-(5-methyl-1,2,4-oxadiazol-3-yl)phenyl]methyl}prop-2-enamide]  94.1%
32. Cc1cccc(C=C(C#N)C(=O)NC(C)C)c1 [8-J07, 2-cyano-3-(3-methylphenyl)-N-(propan-2-yl)prop-2-enamide]  94.3%
33. C=CC(=O)N1CCCC(n2cc(C)cn2)C1 (stereo not drawn) [3-M12, 1-[3-(4-methyl-1H-pyrazol-1-yl)piperidin-1-yl]prop-2-en-1-one]  94.4%
34. C=CC(=O)N1CCC(c2nnnn2C)CC1 [2-I06, 1-[4-(1-methyl-1H-1,2,3,4-tetrazol-5-yl)piperidin-1-yl]prop-2-en-1-one]  95.6%
35. COc1cc(CC2CN(C(=O)C(C)Cl)C2)cc(OC)c1 (stereo not drawn) [7-H07, 2-chloro-1-{3-[(3,5-dimethoxyphenyl)methyl]azetidin-1-yl}propan-1-one]  97.3%
36. CC(Cl)C(=O)N1CCN(Cc2nnnn2-c2ccccc2)CC1 (stereo not drawn) [7-N05, 2-chloro-1-{4-[(1-phenyl-1H-1,2,3,4-tetrazol-5-yl)methyl]piperazin-1-yl}propan-1-one]  97.8%
37. CC(C)NC(=O)C(C#N)=Cc1cccc(F)c1F [9-J20, 2-cyano-3-(2,3-difluorophenyl)-N-(propan-2-yl)prop-2-enamide]  98%
38. C#CCN1C(=O)C=CC1=O [10-F09, 1-(prop-2-yn-1-yl)-2,5-dihydro-1H-pyrrole-2,5-dione]  98.4%
39. CC(Cl)C(=O)NC(c1cccs1)c1cccs1 (stereo not drawn) [6-L21, N-[bis(thiophen-2-yl)methyl]-2-chloropropanamide]  100%
40. CC(C)c1nc(C=C(C#N)C(=O)NC2CCCCC2)c2ccccn12 [9-B15, 2-cyano-N-cyclohexyl-3-[3-(propan-2-yl)imidazo[1,5-a]pyridin-1-yl]prop-2-enamide]  103%
41. C=CC(=O)NC1CCC(c2nc(-c3ccccc3)n[nH]2)CC1 (stereo not drawn) [1-P05, N-[4-(3-phenyl-1H-1,2,4-triazol-5-yl)cyclohexyl]prop-2-enamide]  104%
42. CC(Cl)C(=O)N1CCCC1c1nccc(C(F)(F)F)n1 (stereo not drawn) [7-B11, 2-chloro-1-{2-[4-(trifluoromethyl)pyrimidin-2-yl]pyrrolidin-1-yl}propan-1-one]  106%
43. Cc1nc2n(n1)CCN(C(=O)C(C)Cl)C2 (stereo not drawn) [5-A04, 2-chloro-1-{2-methyl-5H,6H,7H,8H-[1,2,4]triazolo[1,5-a]pyrazin-7-yl}propan-1-one]  107%
44. COc1cc(Cl)ccc1CNC(=O)C(C#N)=Cc1ccco1 [9-E18, N-[(4-chloro-2-methoxyphenyl)methyl]-2-cyano-3-(furan-2-yl)prop-2-enamide]  109%
45. CC(Cl)C(=O)N(C(C)CS(C)(=O)=O)C1CC1 (stereo not drawn) [6-L17, 2-chloro-N-cyclopropyl-N-(1-methanesulfonylpropan-2-yl)propanamide]  112%
46. N#CC(=Cc1ccc(C#N)cc1)C(=O)Nc1cccc(Cl)c1Cl [8-J05, 2-cyano-3-(4-cyanophenyl)-N-(2,3-dichlorophenyl)prop-2-enamide]  112%
47. Cc1ccccc1CN1CCC(NC(=O)CCl)CC1 [6-L08, 2-chloro-N-{1-[(2-methylphenyl)methyl]piperidin-4-yl}acetamide hydrochloride]  113%
48. C=CC(=O)NCc1nc(C(C)(C)O)n[nH]1 [2-E15, N-{[3-(2-hydroxypropan-2-yl)-1H-1,2,4-triazol-5-yl]methyl}prop-2-enamide]  116%
49. CC(Cl)C(=O)NCc1cnc(N2CCOCC2)s1 (stereo not drawn) [6-P05, 2-chloro-N-{[2-(morpholin-4-yl)-1,3-thiazol-5-yl]methyl}propanamide]  116%
50. CCCn1c(C)cc(C=C(C#N)C(=O)N2CCCC2)c1C [9-I03, 3-(2,5-dimethyl-1-propyl-1H-pyrrol-3-yl)-2-(pyrrolidine-1-carbonyl)prop-2-enenitrile]  134%
51. C=CC(=O)NCc1ccnn1CC(F)(F)F [1-O18, N-{[1-(2,2,2-trifluoroethyl)-1H-pyrazol-5-yl]methyl}prop-2-enamide]  168%
